Measurements: patent publication US12398119B2, “Piperazine azaspiro derivatives” (PFIZER INC., priority 2018, dated 2025)
pEC50: −log10 of the molar value. Where two headings read alike, the source gives them in different places.

Target: T1, Human M4 mAChR (Homo sapiens, UniProt P08173)
T1 construct: host or cells: HEK293 (Sor-L9 HEK293 human/M4/GloSensor Cell Clone Number 40)
T1 sequence (P08173 1-479): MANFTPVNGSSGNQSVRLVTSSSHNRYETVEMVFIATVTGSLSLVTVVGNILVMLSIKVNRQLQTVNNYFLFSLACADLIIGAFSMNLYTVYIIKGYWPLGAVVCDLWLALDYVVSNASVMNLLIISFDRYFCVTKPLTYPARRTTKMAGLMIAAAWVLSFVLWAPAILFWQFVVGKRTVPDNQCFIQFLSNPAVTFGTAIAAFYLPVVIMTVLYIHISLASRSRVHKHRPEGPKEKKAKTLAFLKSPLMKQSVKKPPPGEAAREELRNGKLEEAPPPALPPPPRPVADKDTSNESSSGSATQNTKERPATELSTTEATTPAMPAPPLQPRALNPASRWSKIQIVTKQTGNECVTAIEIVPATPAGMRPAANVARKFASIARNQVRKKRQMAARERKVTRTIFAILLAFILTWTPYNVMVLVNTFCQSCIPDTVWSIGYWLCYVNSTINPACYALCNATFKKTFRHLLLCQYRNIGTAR
Assay: Muscarinic hM4 Agonist GloSensor cAMP Assay
Type: cell-based
Description: Muscarinic hM4 Agonist GloSensor cAMP Assay Methods
Compounds were prepared in advance of the assay. Test compounds were solubilized in 100% dimethyl sulfoxide (DMSO, Sigma D8418) to a concentration of 30 mM. A 10-point intermediate dilution series using half log dilutions was created in 100% DMSO with a top concentration of 4 mM. The serially diluted compounds were spotted as 200 nL/well in a 384-well plate (Matrix Catalog Number 4325). The final compound concentration range in the assay was […] to 0.3 nM with a final DMSO concentration of 0.25%.
Human M4 mAChR expressing stable cell lines were generated using a parental HEK cell expressing the GloSensor construct (Promega Sor-L9 HEK293 human/M4/GloSensor Cell Clone Number 40). The cells were grown in 90% Dulbecco's Modified Eagle Medium (DMEM, Gibco 11960), 10% fetal bovine serum (FBS, Hyclone CH.30160-03), 1% Penicillin/Streptomycin (Gibco 15070-063), 500 µg/mL Geneticin (Gibco 10131-027), 200 µg/mL Hygromycin B (Invitrogen 10687-010) and 1% Glutamax (Thermo Fisher 35050061).
One day prior to assay, the cells were lifted using dissociation buffer (Gibco 13151-014) and spun in a centrifuge at 250 times gravity for 5 minutes at room temperature. Supernatant was removed and the cell pellet was resuspended in growth media to a concentration of […]. Cells were then added to white poly-d-lysine coated plates (Becton Dickinson 356661) as 40 μL per well (25,000 cells) and incubated overnight (20-24 hours) in a 37° C. humidified incubator with 5% carbon dioxide (C02).
The following day, culture media was removed from the cell plates and replaced with […] equilibration medium containing 88% CO2-independent medium (Invitrogen 18045088), 10% FBS and 2% GloSensor cAMP reagent (Promega E1291) that had been warmed to 37° C. Plates were then covered and incubated for 2 hours at room temperature while protected from light.
To the previously prepared serially diluted compound plates, 200 nL of 4 mM ACh (Sigma A2661, 10 μM final) or 200 nL of 100% DMSO (0.25% final) was added to the positive and negative control wells, respectively. Compound plates were then diluted by adding 16 μL of C02-independent media containing 10% FBS and an EC80 concentration of isoproterenol (Sigma 16504). Prior to compound testing, concentration response curves were run for isoproterenol to determine the EC80 concentration. At the end of the 2 hour equilibration, 10 µL was transferred from the compound plates to the cell plates. The cell plates were incubated an additional 7 minutes at room temperature and then read using a Multi-label EnVision plate reader (Perkin Elmer) for luminescence.
The raw data, expressed as relative light units, was analyzed using Activity Base (IDBS). The percent effect at each compound concentration was calculated based on and relative to the amount of cAMP produced by the positive and negative control wells contained on each assay plate. The positive control wells contained an EC100 concentration of ACh and the negative control wells contained only DMSO. The concentration and % effect values were fit using a four-parameter logistic dose response equation, and the concentration required for 50% effect (EC50) was determined as well as the maximum asymptote of the concentration response curve to define the efficacy.

[1] = enantiomers reported in footnotes to Table 1, number of determinations in parentheses, read-out: M4 EC50
[2] = Emax: maximum asymptote of concentration response curve, relative to ACh positive control (EC100) and DMSO, geometric mean, read-out: % maximum effect
[3] = HEK293 human/M4/GloSensor cells, EC80 isoproterenol, geometric mean, number of determinations in parentheses, read-out: EC50

Compound | pEC50 [1] | Emax (enantiomers reported in footnotes to Table 1, number of determinations in parentheses, read-out: M4 Emax) [%] | Emax [2] [%] | pEC50 [3]
CCOC(=O)N1CC2(CCC(N3CCN(c4ncc(F)cc4-c4cscn4)CC3)C2)C1 (single isomer, unassigned) [enantiomer of Example 26, ethyl 6-{4-[5-fluoro-3-(1,3-thiazol-4-yl)pyridin-2-yl]piperazin-1-yl}-2-azaspiro[3.4]octane-2-carboxylate] | 6.82 | 67.1 | – | –
CCOC(=O)N1CC2(CCC(N3CCN(c4nccnc4OC)CC3)C2)C1 (single isomer, unassigned) [Example 27, ethyl 6-[4-(3-methoxypyrazin-2-yl)piperazin-1-yl]-2-azaspiro[3.4]octane-2-carboxylate] | – | – | 25.1 | 7.94
CCOC(=O)N1CC2(CCC(N3CCN(c4ncccc4N4CCC(c5ccnn5C)CC4)CC3)C2)C1 (stereo not shown) [Example 28, ethyl 6-(4-{3-[4-(1-methyl-1H-pyrazol-5-yl)pipendin-1-yl]pyridin-2-yl}piperazin-1-yl)-2-azaspiro[3.4]octane-2-carboxylate] | – | – | 60 | 8.75
CCOC(=O)N1CC2(CC(N3CCN(c4ncccc4-c4cnccn4)CC3)C2)C1 [Example 35, ethyl 6-{4-[3-(pyrazin-2-yl)pyridin-2-yl]piperazin-1-yl}-2-azaspiro[3.3]heptane-2-carboxylate] | – | – | 94.2 | 6.52
CCOC(=O)N1CC2(CC[C@@H](N3CCN(c4ncccc4N4CC5(COC5)C4)CC3)C2)C1 [Example 44, ethyl (6R)-6-{4-[3-(2-oxa-6-azaspiro[3.3]hept-6-yl)pyridin-2-yl]piperazin-1-yl}-2-azaspiro[3.4]octane-2-carboxylate] | – | – | 92.5 | 9.00
CCOC(=O)N1CC2(CC(N3CCN(c4ncccc4-c4sncc4C)CC3)C2)C1 [Example 31, ethyl 6-{4-[3-(4-methyl-1,2-thiazol-5-yl)pyridin-2-yl]piperazin-1-yl}-2-azaspiro[3.3]heptane-2-carboxylate] | – | – | 101 | 7.87
CCOC(=O)N1CC2(CCC(N3CCN(c4ncccc4-c4cnc(OC)cn4)CC3)C2)C1 (single isomer, unassigned) [Example 3, ethyl 6-{4-[3-(5-methoxypyrazin-2-yl)pyridin-2-yl]piperazin-1-yl}-2-azaspiro[3.4]octane-2-carboxylate] | – | – | 83.7 | 8.41
CCOC(=O)N1CC2(CC(N3CCN(c4ncccc4-c4ccc(C#N)cn4)CC3)C2)C1 [Example 24, ethyl 6-[4-(5-cyano-2,3′-bipyridin-2′-yl)piperazin-1-yl]-2-azaspiro[3.3]heptane-2-carboxylate] | – | – | 70.6 | 7.27
CCOC(=O)N1CC2(CC[C@@H](N3CCN(c4ncccc4OC)CC3)C2)C1 [Example 6, ethyl (6R)-6-[4-(3-methoxypyridin-2-yl)piperazin-1-yl]-2-azaspiro[3.4]octane-2-carboxylate] | – | – | 86.3 | 8.80
CCOC(=O)N1CC2(CCC(N3CCN(c4ncccc4-c4ccc(OC)nc4)CC3)C2)C1 (stereo not shown) [Example 38, ethyl 6-[4-(6′-methoxy-3,3′-bipyridin-2-yl)piperazin-1-yl]-2-azaspiro[3.4]octane-2-carboxylate] | – | – | 74.7 | 8.93
CCOC(=O)N1CC2(CC[C@@H](N3CCN(c4ncccc4-c4ccncn4)CC3)C2)C1 [Example 46, ethyl (6R)-6-{4-[3-(pyrimidin-4-yl)pyridin-2-yl]piperazin-1-yl}-2-azaspiro[3.4]octane-2-carboxylate] | – | – | 96.6 | > 8.76

Results, then the molecule that gave them:

pEC50 [1] | Emax (enantiomers reported in footnotes to Table 1, number of determinations in parentheses, read-out: M4 Emax) [%] | Emax [2] [%] | pEC50 [3] | Compound
– | – | 92.3 | 8.36 | CCOC(=O)N1CC2(CCC(N3CCN(c4ncccc4-c4ccnnc4)CC3)C2)C1 (stereo not shown) [Example 17, ethyl 6-{4-[3-(pyridazin-4-yl)pyridin-2-yl]piperazin-1-yl}-2-azaspiro[3.4]octane-2-carboxylate]
– | – | 82.4 | 8.07 | CCOC(=O)N1CC2(CCC(N3CCN(c4ncccc4-c4cnc(C#N)cn4)CC3)C2)C1 (single isomer, unassigned) [Example 41, ethyl 6-{4-[3-(5-cyanopyrazin-2-yl)pyridin-2-yl]piperazin-1-yl}-2-azaspiro[3.4]octane-2-carboxylate]
– | – | 78.4 | 8.84 | CCOC(=O)N1CC2(CCC(N3CCN(c4cccnc4OC(F)F)CC3)C2)C1 (single isomer, unassigned) [Example 19, ethyl 6-{4-[2-(difluoromethoxy)pyridin-3-yl]piperazin-1-yl}-2-azaspiro[3.4]octane-2-carboxylate]
– | – | 83.9 | 8.07 | CCOC(=O)N1CC2(CCC(N3CCN(c4ncccc4-c4cnc(O)cn4)CC3)C2)C1 (stereo not shown) [Example 48, ethyl 6-{4-[3-(5-hydroxypyrazin-2-yl)pyridin-2-yl]piperazin-1-yl}-2-azaspiro[3.4]octane-2-carboxylate]
– | – | 70.3 | 8.64 | CCOC(=O)N1CC2(CCC(N3CCN(c4ncccc4N4CC(C#N)C4)CC3)C2)C1 (stereo not shown) [Example 30, ethyl 6-{4-[3-(3-cyanoazetidin-1-yl)pyridin-2-yl]piperazin-1-yl}-2-azaspiro[3.4]octane-2-carboxylate]
< 5.00 | – | – | – | CCOC(=O)N1CCC2(CC(N3CCN(c4ncccc4-c4ccc(C#N)cn4)CC3)C2)C1 (single isomer, unassigned) [enantiomer of Example 23, ethyl 2-[4-(5-cyano-2,3′-bipyridin-2′-yl)piperazin-1-yl]-6-azaspiro[3.4]octane-6-carboxylate]
– | – | 75.3 | 8.00 | CCOC(=O)N1CC2(CCC(N3CCN(c4cccnc4OC(F)(F)F)CC3)C2)C1 (single isomer, unassigned) [Example 20, ethyl 6-{4-[2-(trifluoromethoxy)pyridin-3-yl]piperazin-1-yl}-2-azaspiro[3.4]octane-2-carboxylate]
– | – | 82.7 | 8.34 | CCOC(=O)N1CC2(CCC(N3CCN(c4ncccc4-c4cnc(OC)cn4)CC3)C2)C1 (stereo not shown) [Example 1, ethyl 6-{4-[3-(5-methoxypyrazin-2-yl)pyridin-2-yl]piperazin-1-yl}-2-azaspiro[3.4]octane-2-carboxylate]
